Experimental data as given in US20100048498A1, “STABLE NON-DIHYDRATE AZITHROMYCIN ORAL SUSPENSIONS” (priority 2004, published 2010).

What was measured:
Assay type in all cases: physicochemical
[1] = Stability of non-dihydrate azithromycin in suspension (POS formulation II or bulk drug in water); SS-NMR quantification of form A
Experimental: The stability of various forms of non-dihydrate azithromycin, in water and in flavored oral suspensions, was evaluated. Specifically, non-dihydrate azithromycin forms G, M, N, F and J were separately used in POS formulation II. These POS formulations were constituted by mixing with 18 mls of water. The suspensions were then stored for 1, 5 and 10 days at either 5° C. or 30° C. Suspensions of bulk azithromycin forms G, M, N, F and J were also constituted with 18 mls of water and stored under the same conditions.
Upon conclusion of the storage time period the suspensions were filtered and suspended solids collected as described previously.

[2] = Effect of cyclodextrins on non-dihydrate azithromycin form conversion in constituted POS formulation II; conditions: for % Form A: 18 mls water
Experimental: The effect of adding a complexing agent such as cyclodextrin on the stability of non-dihydrate azithromycin forms G, M and F against conversion in a constituted POS formulation were evaluated.
Forms G, M and F of azithromycin were formulated into POS formulation II. Various cyclodextrins were added to the POS formulation II and the resulting samples were constituted with 18 mls of water. The suspensions were then stored for 24 hours at room temperature. At the end of the storage time, the suspensions were filtered and the recovered solids were weighed and analyzed by SS-NMR to quantify the presence of azithromycin dihydrate (form A). The control samples were formulated into formulation II with non-dihydrate azithromycin form G, M and F without cyclodextrins and were constituted with water, stored, filtered and analyzed identically to the cyclodextrin samples described above. A control, which had no cyclodextrin was run with each series of experiments. The SS-NMR data are presented in Tables 10, 11, 12 and the results are given as weight percent (% wt), of the recovered azithromycin sample.

[3] = Effects of flavoring components upon azithromycin form F conversion in constituted POS; conditions: room temperature
Description: POS formulation II was constituted with water and stored identically to serve as a control for this experiment.

[4] = Bulk Drug in 18 mls water, 5° C., Day 1
[5] = Bulk Drug in 18 mls water, 5° C., Day 10
[6] = Bulk Drug in 18 mls water, 30° C., Day 1
[7] = Bulk Drug in 18 mls water, 30° C., Day 10
[8] = Formulation II constituted with 18 mls water, 5° C., Day 1
[9] = Formulation II constituted with 18 mls water, 5° C., Day 10
[10] = Formulation II constituted with 18 mls water, 30° C., Day 1
[11] = Formulation II constituted with 18 mls water, 30° C., Day 10
[12] = POS Formulation II + Hydroxypropyl β-cyclodextrin 11.1 % w/w, 24 hours room temperature (Tables 11, 12)
[13] = POS Formulation II, no cyclodextrin (Control), 24 hours room temperature (Tables 11, 12)

## CCC1OC(=O)C(C)C(O[C@H]2C[C@@](C)(OC)[C@@H](O)C(C)O2)C(C)[C@@H](OC2OC(C)CC(N(C)C)[C@H]2O)[C@@](C)(O)C[C@@H](C)CN(C)[C@H](C)[C@@H](O)[C@]1(C)O (some centres unmarked) [Form M, azithromycin monohydrate hemi-isopropanol solvate]
[1]; [4]
  % A (azithromycin dihydrate, form A, of recovered azithromycin): 0%
[1]; Bulk Drug in 18 mls water, 5° C., Day 5
  % A (azithromycin dihydrate, form A, of recovered azithromycin): 0%
[1]; [5]
  % A (azithromycin dihydrate, form A, of recovered azithromycin): 0%
[1]; [6]
  % A (azithromycin dihydrate, form A, of recovered azithromycin): 0%
[1]; Bulk Drug in 18 mls water, 30° C., Day 5
  % A (azithromycin dihydrate, form A, of recovered azithromycin): 0%
[1]; [7]
  % A (azithromycin dihydrate, form A, of recovered azithromycin): 0%
[1]; [8]
  % A (azithromycin dihydrate, form A, of recovered azithromycin): 23%
[1]; Formulation II constituted with 18 mls water, 5° C., Day 5
  % A (azithromycin dihydrate, form A, of recovered azithromycin): 38%
[1]; [9]
  % A (azithromycin dihydrate, form A, of recovered azithromycin): 40%
[1]; [10]
  % A (azithromycin dihydrate, form A, of recovered azithromycin): 28%
[1]; Formulation II constituted with 18 mls water, 30° C., Day 5
  % A (azithromycin dihydrate, form A, of recovered azithromycin): 36%
[1]; [11]
  % A (azithromycin dihydrate, form A, of recovered azithromycin): 62%
[2]; [12]
  % Form A: 0.0%
[2]; POS Formulation II + Hydroxypropyl β-cyclodextrin 11.1 % w/w, 24 hours room temperature (Tables 11, 12), listed as form M
  % Form A: no conversion
[2]; POS Formulation II + β-cyclodextrin 1.2 % w/w, 24 hours room temperature (Table 12)
  % Form A: 0.9%
[2]; POS Formulation II + β-cyclodextrin 1.2 % w/w, 24 hours room temperature (Table 12), listed as form M
  % Form A: very small amount of conversion
[2]; POS Formulation II + γ-cyclodextrin 1.2 % w/w, 24 hours room temperature (Table 12)
  % Form A: 29.9%
[2]; [13]
  % Form A: 71.6%

## CCC1OC(=O)C(C)C(O[C@H]2C[C@@](C)(OC)[C@@H](O)C(C)O2)C(C)[C@@H](OC2OC(C)CC(N(C)C)[C@H]2O)[C@@](C)(O)C[C@@H](C)CN(C)[C@H](C)[C@@H](O)[C@]1(C)O (some centres unmarked) [Form F, azithromycin monohydrate hemi-ethanol solvate]
[1]; [4]
  % A (azithromycin dihydrate, form A, of recovered azithromycin): 0%
[1]; [5]
  % A (azithromycin dihydrate, form A, of recovered azithromycin): 0%
[1]; [6]
  % A (azithromycin dihydrate, form A, of recovered azithromycin): 0%
[1]; [7]
  % A (azithromycin dihydrate, form A, of recovered azithromycin): 0%
[1]; [8]
  % A (azithromycin dihydrate, form A, of recovered azithromycin): 6%
[1]; [9]
  % A (azithromycin dihydrate, form A, of recovered azithromycin): 27%
[1]; [10]
  % A (azithromycin dihydrate, form A, of recovered azithromycin): 19%
[1]; [11]
  % A (azithromycin dihydrate, form A, of recovered azithromycin): 31%
[3]; Formulation I constituted with 18 mL 0.0577 mg/ml benzaldehyde
  % F (SS-NMR Evaluation after 24 hrs constitution): 0%
[3]; Formulation I constituted with 18 mL 0.922 mg/ml 3-methyl-butyl acetate + 0.0577 mg/ml benzaldehyde
  % F (SS-NMR Evaluation after 24 hrs constitution): 0%
[3]; Formulation I constituted with 18 mL 0.922 mg/ml 3-methyl-butyl acetate
  % F (SS-NMR Evaluation after 24 hrs constitution): 0%
[3]; Formulation I constituted with 18 mL 1.666 mg/ml 3-methyl-butyl acetate
  % F (SS-NMR Evaluation after 24 hrs constitution): 0%
[3]; Formulation II constituted with 18 mL Water
  % F (SS-NMR Evaluation after 24 hrs constitution): 0%
[2]; [12]
  % Form A: 0.0%
[2]; POS Formulation II + Sulfobutylether β-cyclodextrin 11.1 % w/w, 24 hours room temperature (Table 11)
  % Form A: 0.0%
[2]; POS Formulation II + α-cyclodextrin 1.2 % w/w, 24 hours room temperature (Table 11)
  % Form A: 0.0%
[2]; POS Formulation II when cyclodextrins were present, 24 hours room temperature
  conversion to form A: no conversion
[2]; [13]
  % Form A: 74.6%

## CCC1OC(=O)C(C)C(O[C@H]2C[C@@](C)(OC)[C@@H](O)C(C)O2)C(C)[C@@H](OC2OC(C)CC(N(C)C)[C@H]2O)[C@@](C)(O)C[C@@H](C)CN(C)[C@H](C)[C@@H](O)[C@]1(C)O (some centres unmarked) [Form J, azithromycin monohydrate hemi-n-propanol solvate]
[1]; [4]
  % A (azithromycin dihydrate, form A, of recovered azithromycin): 0%
[1]; [5]
  % A (azithromycin dihydrate, form A, of recovered azithromycin): 0%
[1]; [6]
  % A (azithromycin dihydrate, form A, of recovered azithromycin): 0%
[1]; [7]
  % A (azithromycin dihydrate, form A, of recovered azithromycin): 0%
[1]; [8]
  % A (azithromycin dihydrate, form A, of recovered azithromycin): 0%
[1]; [9]
  % A (azithromycin dihydrate, form A, of recovered azithromycin): 0%
[1]; [10]
  % A (azithromycin dihydrate, form A, of recovered azithromycin): 0%
[1]; [11]
  % A (azithromycin dihydrate, form A, of recovered azithromycin): 0%
